US20160045513A1, “ISOXAZOLE COMPOUND FOR THE TREATMENT OF CANCER” (Novartis AG, priority 2007, published 2016)

Columns and labels:
Format in all cases: cell-based
[1] = test system: MEXF 672; assay: clonogenic assay, human tumor xenografts in vitro; settings: Melanoma, MEXF 672, Amelanotic melanoma, soft agar, read-out: IC50 (nM), colony formation
Protocol: (§1) The anticancer activity of 5-(2,4-Dihydroxy-5-isopropyl-phenyl)-4-(4-morpholin-4-ylmethyl-phenyl)-isoxazole-3-carboxylic acid ethylamide is evaluated in 30 human tumor xenografts in vitro using a clonogenic assay. In this assay, human cells derived from cancer patients are evaluated for the capacity of 5-(2,4-Dihydroxy-5-isopropyl-phenyl)-4-(4-morpholin-4-ylmethyl-phenyl)-isoxazole-3-carboxylic acid ethylamide to inhibit the formation of 3 dimensional colonies. […] The tumor xenografts which have never been cultured in cell culture plastic dishes are isolated from nude mice. Tumor cell suspensions are prepared and incubated in 24 well plates containing layers of soft agar. Under these conditions a special subpopulation of cells selectively grows to colonies. 5-(2,4-Dihydroxy-5-isopropyl-phenyl)-4-(4-morpholin-4-ylmethyl-phenyl)-isoxazole-3-carboxylic acid ethylamide was tested in 6 concentrations up to […]. The tumor test panel comprises 1 to 6 models of 10 different human tumor or cancer types, which were bladder cancer, colon, liver, non small cell lung (adeno, squamous epithelium and large cell), small cell lung, mammary, ovary, pancreatic, melanoma and pleuramesothelioma. Antitumor effects are recorded as inhibition of colony formation in relation to untreated controls. Further information on the method has been published (Burger et al., 2004; Fiebig et al., 2004; Smith et al., 2005).
(§2) The cells are continually exposed to 5-(2,4-Dihydroxy-5-isopropyl-phenyl)-4-(4-morpholin-4-ylmethyl-phenyl)-isoxazole-3-carboxylic acid ethylamide and colony formation is determined.

[2] = test system: MAXF 401; assay: clonogenic assay, human tumor xenografts in vitro; settings: MAXF401, Breast, MAXF 401, Pap. adeno carcinoma, soft agar, read-out: IC50 (nM), colony formation
Protocol: as §1, §2

[3] = test system: MDA-MB-231; assay: cell proliferation, tumor derived cell lines; settings: Homo sapiens, Breast, 72 or 96 hours exposure
Protocol: (§3) Thirty-seven cancer derived cell lines are used (BT474, MDA-MB-361, MDA-MB-453, SKBr3, T47D, MCF7, MDA-MB-231, MDA-MB-468, SK-MEL-5, A375, MALME-3M, SK-MEL-28, WM266.4, RPMI8226, U266, BE, Colo205, HCT116, HT29, MAWI, RKO, U87MG, HN5, RPMI-8226, A549, MV522, NCI-H1299, NCI-H460, 41M, A2780, CHI, NCI-N87, SKOV3, PC3, MO7e, GIST882 and Baf3) to test the effect of 5-(2,4-Dihydroxy-5-isopropyl-phenyl)-4-(4-morpholin-4-ylmethyl-phenyl)-isoxazole-3-carboxylic acid ethylamide. Cell lines are commercially available from American Type Culture Collection (ATCC). These cell lines cover the following 12 cancer or tumor types: breast, melanoma, multiple myeloma (MM), colon, glioblastoma, head & neck, leukemia, lung, ovarian, prostate, stomach and gastrointestinal stromal tumour (GIST). After division and medium change, cells from stock culture are seeded on cell plates and cultured for about 18 hours to allow cell growth and attachment before starting the assay. On the first day of the assay, 5-(2,4-Dihydroxy-5-isopropyl-phenyl)-4-(4-morpholin-4-ylmethyl-phenyl)-isoxazole-3-carboxylic acid ethylamide is added to the medium at various concentrations up to […]. Cells are cultured up to 72 or 96 hours and cell proliferation is determined using commercially available cell proliferation kits.
(§4) The cells were continually exposed to 5-(2,4-Dihydroxy-5-isopropyl-phenyl)-4-(4-morpholin-4-ylmethyl-phenyl)-isoxazole-3-carboxylic acid ethylamide for either 72 or 96 hours and cell growth was determined by commercially available kits based on either SRB, Alamar blue, methylene blue or WST-1 methods.

[4] = test system: NCI-N87; assay: cell proliferation, tumor derived cell lines; settings: Homo sapiens, Stomach, 72 or 96 hours exposure
Protocol: as §3, §4

[5] = test system: Colo205; assay: cell proliferation, tumor derived cell lines; settings: Homo sapiens, COLO 205, Colon, 72 or 96 hours exposure
Protocol: as §3, §4

[6] = test system: CH1; assay: cell proliferation, tumor derived cell lines; settings: Homo sapiens, Ovarian, 72 or 96 hours exposure
Protocol: as §3, §4

[7] = test system: A549; assay: cell proliferation, tumor derived cell lines; settings: Homo sapiens, Lung, 72 or 96 hours exposure
Protocol: as §3, §4

[8] = test system: RPMI8226; assay: cell proliferation, tumor derived cell lines; settings: Homo sapiens, RPMI-8226, Multiple myeloma (MM), 72 or 96 hours exposure
Protocol: as §3, §4

[9] = test system: RKO; assay: cell proliferation, tumor derived cell lines; settings: Homo sapiens, Colon, 72 or 96 hours exposure
Protocol: as §3, §4

[10] = test system: A2780; assay: cell proliferation, tumor derived cell lines; settings: Homo sapiens, Ovarian, 72 or 96 hours exposure
Protocol: as §3, §4

[11] = test system: BT474; assay: cell proliferation, tumor derived cell lines; settings: Homo sapiens, BT-474, Breast, 72 or 96 hours exposure
Protocol: as §3, §4

[12] = test system: MDA-MB-453; assay: cell proliferation, tumor derived cell lines; settings: Homo sapiens, Breast, 72 or 96 hours exposure
Protocol: as §3, §4

[13] = test system: T47D; assay: cell proliferation, tumor derived cell lines; settings: Homo sapiens, Breast, 72 or 96 hours exposure
Protocol: as §3, §4

[14] = test system: SK-MEL-28; assay: cell proliferation, tumor derived cell lines; settings: Homo sapiens, Melanoma, 72 or 96 hours exposure
Protocol: as §3, §4

[15] = test system: Baf3; assay: cell proliferation, tumor derived cell lines; settings: Mus musculus, Gastrointestinal stromal tumour (GIST), 72 or 96 hours exposure
Protocol: as §3, §4

[16] = test system: NCI-H460; assay: cell proliferation, tumor derived cell lines; settings: Homo sapiens, Lung, 72 or 96 hours exposure
Protocol: as §3, §4

[17] = test system: U266; assay: cell proliferation, tumor derived cell lines; settings: Homo sapiens, U-266, Multiple myeloma (MM), 72 or 96 hours exposure
Protocol: as §3, §4

[18] = test system: WM266.4; assay: cell proliferation, tumor derived cell lines; settings: Homo sapiens, WM 266-4, Melanoma, 72 or 96 hours exposure
Protocol: as §3, §4

[19] = test system: NCI-H1299; assay: cell proliferation, tumor derived cell lines; settings: Homo sapiens, Lung, 72 or 96 hours exposure
Protocol: as §3, §4

[20] = test system: SK-MEL-5; assay: cell proliferation, tumor derived cell lines; settings: Homo sapiens, Melanoma, 72 or 96 hours exposure
Protocol: as §3, §4

[21] = test system: 41M; assay: cell proliferation, tumor derived cell lines; settings: Homo sapiens, Ovarian, 72 or 96 hours exposure
Protocol: as §3, §4

[22] = test system: U87MG; assay: cell proliferation, tumor derived cell lines; settings: Homo sapiens, U-87 MG, Glioblastoma, 72 or 96 hours exposure
Protocol: as §3, §4

[23] = test system: HCT116; assay: cell proliferation, tumor derived cell lines; settings: Homo sapiens, HCT-116, Colon, 72 or 96 hours exposure
Protocol: as §3, §4

IC50 [1]: 18 nM | IC50 [2]: 78 nM | IC50 [3]: 7.7 nM | IC50 [4]: 0.2 nM | IC50 [5]: 6.2 nM | IC50 [6]: 2.8 nM | IC50 [7]: 11.7 nM | IC50 [8]: 36.7 nM | IC50 [9]: 3.1 nM | IC50 [10]: 6.1 nM | IC50 [11]: 2.8 nM | IC50 [12]: 3.9 nM | IC50 [13]: 2.6 nM | IC50 [14]: 8 nM | IC50 [15]: 22.4 nM | IC50 [16]: 14 nM | IC50 [17]: 23.3 nM | IC50 [18]: 6.2 nM | IC50 [19]: 5.7 nM | IC50 [20]: 3 nM | IC50 [21]: 3 nM | IC50 [22]: 6 nM | IC50 [23]: 16 nM
SMILES: CCNC(=O)c1noc(-c2cc(C(C)C)c(O)cc2O)c1-c1ccc(CN2CCOCC2)cc1 [AUY922, 5-(2,4-Dihydroxy-5-isopropyl-phenyl)-4-(4-morpholin-4-ylmethyl-phenyl)-isoxazole-3-carboxylic acid ethylamide]
